A word on the inhibition: it is the percentage by which the read-out fell short of the control.

In assay [1] the test system is Pyricularia oryzae. Format: in vivo.
The subject of assay [2] is Peronospora parasitica Emwa. Kind of assay: Action against Peronospora parasitica Emwa in Arabidopsis thaliana (Ws), rRNA fungal probe. It counts as in vivo.
The test system of assay [3] is Peronospora parasitica isolate Emwa. In words: Action against Peronospora parasitica in Arabidopsis overexpressing NIM1 (lines 6E, 7C) and wild-type Ws. Format: in vivo. Particulars: for inhibition at 500 µg/mL: fosetyl 0.5 g/l; for inhibition at 5000 µg/mL: fosetyl 5.0 g/l. The source says:
The plant lines used in this example (6E and 7C) were generated from transformation of wild-type Arabidopsis thaliana plants (ecotype Ws) with the BamHI-HindIII NIM1 genomic fragment (SEQ ID NO:1—bases 1249-5655), as described above in Example 21. The fungicides metalaxyl, fosetyl, and copper hydroxide, formulated as 25%, 80%, and 70% active ingredient (ai), respectively, with a wettable powder carrier, were applied as fine mist to leaves of three week-old transgenic Ws plants constitutively expressing the NIM1 gene. The wettable powder alone was applied as a control. Three days later, plants were inoculated with a Peronospora parasitica isolate Emwa conidial suspension (1-2×10^5 spores/ml), as described in Delaney et al. (1995). Following inoculation, plants were covered to maintain high humidity and were placed in a Percival growth chamber at 17° C. with a 14-hr day/10-hr night cycle (Uknes et al., 1993). Tissue was harvested 8 days after inoculation.
Fungal infection progression was followed for 12 days by viewing under a dissecting microscope to score development of conidiophores (Delaney, et al. (1994); Dietrich, et al. (1994)). Lactophenoltrypan blue staining of individual leaves was carried out to observe fungal growth within leaf tissue. Fungal growth was quantified using a rRNA fungal probe obtained by PCR according to White et al. (1990; PCR Protocols: A guide to Methods and Application, 315-322) using primers NS1 and NS2 and P. parasitica EmWa DNA as templates. RNA was purified from frozen tissue by phenol/chloroform extraction following lithium chloride precipitation (Lagrimini et al, 1987: PNAS, 84: 7542-7546). Samples (7.5 μg) were separated by electrophoresis through formaldehyde agarose gels and blotted to nylon membranes (Hybond-N+, Amersham) as described by Ausbel et al. (1987). Hybridizations and washing were according to Church and Gilbert (1984, PNAS, 81: 1991-1995). Relative amounts of the transcript were determined using a Phosphor Imager (Molecular Dynamics, Sunnyvale, Calif.) following manufacturers instructions. Sample loading was normalized by probing stripped filter blots with the constitutively expressed b-tubulin Arabidopsis cDNA.

Assay [4] relates to Pyricularia oryzae. Format: in vivo. This is another data set of the same source.
Assay [5] has as its system Colletotrichum lagenarium. Kind of assay: Action against Colletotrichum lagenarium on Cucumis sativus L., foliar application. It counts as in vivo.
In assay [6] the test system is Colletotrichum lagenarium. Kind of assay: Action against Colletotrichum lagenarium on Cucumis sativus L., soil application. Format: in vivo.
The next assay relates to Cercospora nicotianae. Kind of assay: Action against Cercospora nicotianae on tobacco plants. Format: in vivo.
The next assay has as its system Phytophthora infestans. Format: in vivo.
For assay [7], the system named is Pseudoperonospora cubensis. In words: Action against Pseudoperonospora cubensis in cucumbers. It counts as in vivo.
The subject of the next assay is Puccinia recondita. Kind of assay: Action against Puccinia recondita in wheat.
A further assay deals with Erysiphe graminis. In words: Action against Erysiphe graminis on barley (residual-protective / systemic).
The subject of the next assay is Peronospora tabacina. In words: Action against Peronospora tabacina on tobacco plants.
For assay [8], the system named is Pyricularia oryzae. It counts as in vivo. The source holds these as a separate data set.
Where [9] appears, read: Hyaloperonospora parasitica, in Arabidopsis thaliana, Table 37, wt Ws, read-out: Fungal Growth Inhibition % O (observed).
Setting [10] is: Hyaloperonospora parasitica, in Arabidopsis thaliana, wild-type Ws (Table 38), read-out: Fungal Growth Inhibition % O (observed).

Where two headings read alike, the source gives them in different places.

Experimental for Erysiphe graminis: Residual-protective action: Barley plants about 8 cm in height were sprayed to drip point with an aqueous spray mixture (max. 0.02 % active ingredient) and were dusted 3 to 4 days later with conidia of the fungus. The infected plants were stood in a greenhouse at 22°. Fungus infestation was generally evaluated 10 days after infection.
Systemic action: Barley plants about 8 cm in height were watered with an aqueous spray mixture (max. 0.002 % active ingredient, based on the volume of the soil). […] The plants were dusted with conidia of the fungus 3 to 4 days later. The infected plants were stood in a greenhouse at 22°. Fungus infestation was generally evaluated 10 days after infection.
Experimental for Peronospora tabacina: Tobacco plants (6 weeks old) were sprayed with a formulated solution of the test compound. Four days after treatment, the plants were inoculated with a sporangia suspension of the fungus, kept at high humidity for 4 to 5 days and then incubated further under a normal day/night sequence. Evaluation of the symptoms in the tests was based on the leaf surface infested with fungus. The infestation of the untreated plants corresponded to 0 % action.
Experimental for Puccinia recondita: 7-day-old wheat plants were sprayed to drip point with a spray mixture prepared from a formulated active ingredient, or combination of active ingredients. After 4 days, the treated plants were infected with a conidia suspension of the fungus, and the treated plants were subsequently incubated for 2 days at a relative atmospheric humidity of 90-100% and 20 C. 10 days post-infection, the fungus infestation was assessed.

Consider `O=C1CCc2cccc3c2N1CC3` [Compound IIJ, 1,2,5,6-tetrahydro-4H-pyrrolo[3,2,1-ij]quinolin-4-one], for which the “% action O (observed)” value in the assay with Pyricularia oryzae [1] (Table 14, comp. II alone 0.75 kg a.i. per ha) was 46%; in the assay on Pyricularia oryzae [1] (Table 14, comp. II alone 1.5 kg a.i. per ha), 82%.
On to `[Cu+2].[OH-].[OH-]` [Cu(OH)2, copper hydroxide], for which the “Fungal Growth Inhibition % O (observed)” value was 0% in assay [2] (Table 32, Ws, Cu(OH)2 alone 0.01 g/l); 0% in assay [3] (Cu(OH)2 0.02 g/l, wild-type Ws (Table 39)); 0% in assay [3] (Cu(OH)2 0.02 g/l, wild-type Ws (Table 40)); 0% in assay [3] (Cu(OH)2 0.2 g/l, wild-type Ws (Table 39)); 0% in assay [3] (Cu(OH)2 0.2 g/l, wild-type Ws (Table 40)); 0% in [3] (Cu(OH)2 2.0 g/l, wild-type Ws (Table 39)). For the same molecule, in assay [3] (Cu(OH)2 2.0 g/l, wild-type Ws (Table 40)), the “Fungal Growth Inhibition % O (observed)” value was determined as 0%.
Turning to `CCC1(C(=O)NC(C)c2ccc(Cl)cc2)C(C)C1(Cl)Cl` [KTU 3616, (1R,3S/1S,3R)-2,2-dichloro-N-[(R)-1-(4-chlorophenyl)ethyl]-1-ethyl-3-methylcyclopropanecarboxamide], the “% action O (observed)” value with Pyricularia oryzae [4] (Table 13, comp. II alone 0.02 ppm) came to 0%; in the assay on Pyricularia oryzae [4] (Table 13, comp. II alone 0.06 ppm), 28%; in the assay with Pyricularia oryzae [4] (Table 13, comp. II alone 0.2 ppm), 47%; in the assay with Pyricularia oryzae [4] (Table 13, comp. II alone 0.6 ppm) it was 79%; with Pyricularia oryzae [4] (Table 13, comp. II alone 2 ppm) it was 83%; with Pyricularia oryzae [4] (Table 13, comp. II alone 6 ppm), 91%.
Take `O=C(O)c1cccc2nnsc12` [benzothiadiazole-7-carboxylic acid]: the “% action O (observed)” value in assay [5] (Table 4, comp. I alone 0.2 ppm) stood at 5%; in assay [5] (Table 4, comp. I alone 2 ppm) it was 22%; in assay [5] (Table 6, comp. I alone 0.2 ppm), 3%; in [5] (Table 6, comp. I alone 0.6 ppm), 51%; in assay [5] (Table 7, comp. I alone 0.06 ppm), 16%; in assay [5] (Table 7, comp. I alone 0.2 ppm) it was 22%. Besides, the “% action O (observed)” value in assay [5] (Table 7, comp. I alone 6 ppm) amounted to 60%; in [6] (Table 5, comp. I alone 0.006 ppm), 0%; in assay [6] (Table 5, comp. I alone 0.02 ppm), 40%; in [6] (Table 5, comp. I alone 0.06 ppm), 49%; in assay [6] (Table 5, comp. I alone 0.2 ppm) it was 91%; in the assay on Cercospora nicotianae (Table 11, comp. I alone 0.2 kg a.i. per ha), 0%. The “% action O (observed)” value was 3% in the assay on Cercospora nicotianae (Table 11, comp. I alone 0.6 kg a.i. per ha); 69% in the assay with Cercospora nicotianae (Table 11, comp. I alone 2 kg a.i. per ha); 79% in the assay on Cercospora nicotianae (Table 11, comp. I alone 6 kg a.i. per ha); 69% in the assay on Cercospora nicotianae (Table 12, comp. I alone 2 kg a.i. per ha); 79% in the assay with Cercospora nicotianae (Table 12, comp. I alone 6 kg a.i. per ha); 100% in the assay with Cercospora nicotianae (Table 12, comp. I alone 20 kg a.i. per ha). For the same molecule, the “% action O (observed)” value in the assay on Phytophthora infestans (Table 26, comp. I alone 0.1 mg a.i. per liter) was 0%; in the assay on Phytophthora infestans (Table 26, comp. I alone 0.5 mg a.i. per liter) it was 9%; in the assay with Phytophthora infestans (Table 26, comp. I alone 1 mg a.i. per liter), 22%; with Phytophthora infestans (Table 26, comp. I alone 5 mg a.i. per liter), 45%; in [7] (Table 27, comp. I alone 0.05 mg a.i. per liter) it was 0%; in [7] (Table 27, comp. I alone 0.5 mg a.i. per liter) it was 6%. Moreover, the “% action O (observed)” value in [7] (Table 27, comp. I alone 5 mg a.i. per liter) is listed as 66%; with Puccinia recondita (Table 20, comp. I alone 6 kg a.i. per ha), 20%; with Puccinia recondita (Table 20, comp. I alone 20 kg a.i. per ha) it was 40%; in the assay with Erysiphe graminis (Table 1, comp. I alone 0.6 ppm), 0%; with Erysiphe graminis (Table 1, comp. I alone 2 ppm), 40%; with Erysiphe graminis (Table 1, comp. I alone 6 ppm), 89%. The “% action O (observed)” value stood at 14% in the assay with Erysiphe graminis (Table 2, comp. I alone 0.6 ppm) and 27% with Erysiphe graminis (Table 2, comp. I alone 2 ppm).
For `COc1ccc(C(=CC(=O)N2CCOCC2)c2ccc(Cl)cc2)cc1OC` [dimethomorph, 4-[3-(4-chlorophenyl)-3-(3,4-dimethoxyphenyl)acryloyl]morpholine], the “% action O (observed)” value in the assay with Peronospora tabacina (Table 28, comp. II alone 0.3 ppm) is 52%; in the assay with Peronospora tabacina (Table 28, comp. II alone 1 ppm), 52%.
Take `CC(Cc1ccc(C(C)(C)C)cc1)CN1CCCCC1` (stereo not drawn) [fenpropidine, 1-[3-(4-tert-butylphenyl)-2-methylpropyl]-piperidine]: the “% action O (observed)” value in the assay with Puccinia recondita (Table 20, comp. II alone 20 kg a.i. per ha) came out at 40%; in the assay with Puccinia recondita (Table 20, comp. II alone 60 kg a.i. per ha), 60%.
In the case of `CCO[PH](=O)O` [fosetyl, ethyl hydrogen phosphonate], the inhibition at 40 µg/mL in assay [2] (Hyaloperonospora parasitica, in Arabidopsis thaliana, Table 31, Ws, fosetyl alone 0.04 g/l, read-out: Fungal Growth Inhibition % O (observed)) worked out at 0%. Besides, the inhibition at 200 µg/mL in assay [2] (Hyaloperonospora parasitica, in Arabidopsis thaliana, Table 31, Ws, fosetyl alone 0.2 g/l, read-out: Fungal Growth Inhibition % O (observed)) came out at 10%. Further, the inhibition at 1000 µg/mL in assay [2] (Hyaloperonospora parasitica, in Arabidopsis thaliana, Table 31, Ws, fosetyl alone 1.0 g/l, read-out: Fungal Growth Inhibition % O (observed)) was 40%. Also, in assay [3] (Hyaloperonospora parasitica, in Arabidopsis thaliana, Table 37, wt Ws, fosetyl 0.05 g/l, read-out: Fungal Growth Inhibition % O (observed)), the inhibition at 50 µg/mL came to 0%. Moreover, in assay [3] (setting [9]), the inhibition at 500 µg/mL is 2% and the inhibition at 5000 µg/mL amounted to 7%. Also, in assay [3] (setting [10]), the inhibition at 500 µg/mL is 2% and the inhibition at 5000 µg/mL was determined as 7%.
Turning to `Cc1cccc2sc3nncn3c12` [tricyclazole, 5-methyl-1,2,4-triazolo[3,4-b][1,3]benzothiazole], the “% action O (observed)” value in the assay on Pyricularia oryzae [8] (Table 15, comp. II alone 0.1 ppm) worked out at 32%; with Pyricularia oryzae [8] (Table 15, comp. II alone 0.25 ppm), 48%; in the assay on Pyricularia oryzae [8] (Table 15, comp. II alone 0.5 ppm), 71%; in the assay on Pyricularia oryzae [8] (Table 15, comp. II alone 1 ppm), 74%.
